EP4745135A1 (Gluetacs Therapeutics (Shanghai) Co., Ltd., priority 2023, dated 2025)
Each block holds one molecule with its values, some of them ahead of it.

Legend:
CK1α = target: T1, CK1α (Homo sapiens, UniProt P48729+Q96SW2); assay: Western blot, degradation of substrate protein in hPBMCs; type: cell-based; settings: Western blot, 24 hours of compound treatment, compounds tested at 50 nM and 500 nM (concentration for the table not stated)
T1 construct: effects of the compounds of the present disclosure on the expression of target proteins in cells; endogenous in cells; host or cells: human PBMCs (Milecell Biotechnologies)
T1 sequence (P48729 whole entry): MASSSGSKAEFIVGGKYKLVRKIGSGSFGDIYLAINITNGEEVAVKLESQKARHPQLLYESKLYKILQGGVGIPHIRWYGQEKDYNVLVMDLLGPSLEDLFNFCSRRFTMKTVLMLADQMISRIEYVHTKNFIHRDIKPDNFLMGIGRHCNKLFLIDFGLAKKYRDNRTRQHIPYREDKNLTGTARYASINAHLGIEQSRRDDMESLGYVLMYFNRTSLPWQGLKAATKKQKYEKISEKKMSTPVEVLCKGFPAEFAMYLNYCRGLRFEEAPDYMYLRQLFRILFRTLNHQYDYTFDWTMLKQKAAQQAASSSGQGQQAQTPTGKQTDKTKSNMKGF
T1 sequence (Q96SW2 whole entry): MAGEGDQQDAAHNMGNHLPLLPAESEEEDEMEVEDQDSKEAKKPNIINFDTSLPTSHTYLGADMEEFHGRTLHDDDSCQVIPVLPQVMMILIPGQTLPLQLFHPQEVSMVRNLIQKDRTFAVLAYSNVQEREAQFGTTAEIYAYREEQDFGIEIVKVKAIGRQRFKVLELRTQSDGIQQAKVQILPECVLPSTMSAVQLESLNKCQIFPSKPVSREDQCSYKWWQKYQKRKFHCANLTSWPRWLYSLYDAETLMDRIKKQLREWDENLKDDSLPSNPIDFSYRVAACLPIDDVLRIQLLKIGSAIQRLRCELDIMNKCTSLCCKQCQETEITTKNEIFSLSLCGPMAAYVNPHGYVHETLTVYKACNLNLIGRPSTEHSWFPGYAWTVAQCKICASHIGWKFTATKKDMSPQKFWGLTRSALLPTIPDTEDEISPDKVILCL
T1 sequence (Q16531 whole entry partner): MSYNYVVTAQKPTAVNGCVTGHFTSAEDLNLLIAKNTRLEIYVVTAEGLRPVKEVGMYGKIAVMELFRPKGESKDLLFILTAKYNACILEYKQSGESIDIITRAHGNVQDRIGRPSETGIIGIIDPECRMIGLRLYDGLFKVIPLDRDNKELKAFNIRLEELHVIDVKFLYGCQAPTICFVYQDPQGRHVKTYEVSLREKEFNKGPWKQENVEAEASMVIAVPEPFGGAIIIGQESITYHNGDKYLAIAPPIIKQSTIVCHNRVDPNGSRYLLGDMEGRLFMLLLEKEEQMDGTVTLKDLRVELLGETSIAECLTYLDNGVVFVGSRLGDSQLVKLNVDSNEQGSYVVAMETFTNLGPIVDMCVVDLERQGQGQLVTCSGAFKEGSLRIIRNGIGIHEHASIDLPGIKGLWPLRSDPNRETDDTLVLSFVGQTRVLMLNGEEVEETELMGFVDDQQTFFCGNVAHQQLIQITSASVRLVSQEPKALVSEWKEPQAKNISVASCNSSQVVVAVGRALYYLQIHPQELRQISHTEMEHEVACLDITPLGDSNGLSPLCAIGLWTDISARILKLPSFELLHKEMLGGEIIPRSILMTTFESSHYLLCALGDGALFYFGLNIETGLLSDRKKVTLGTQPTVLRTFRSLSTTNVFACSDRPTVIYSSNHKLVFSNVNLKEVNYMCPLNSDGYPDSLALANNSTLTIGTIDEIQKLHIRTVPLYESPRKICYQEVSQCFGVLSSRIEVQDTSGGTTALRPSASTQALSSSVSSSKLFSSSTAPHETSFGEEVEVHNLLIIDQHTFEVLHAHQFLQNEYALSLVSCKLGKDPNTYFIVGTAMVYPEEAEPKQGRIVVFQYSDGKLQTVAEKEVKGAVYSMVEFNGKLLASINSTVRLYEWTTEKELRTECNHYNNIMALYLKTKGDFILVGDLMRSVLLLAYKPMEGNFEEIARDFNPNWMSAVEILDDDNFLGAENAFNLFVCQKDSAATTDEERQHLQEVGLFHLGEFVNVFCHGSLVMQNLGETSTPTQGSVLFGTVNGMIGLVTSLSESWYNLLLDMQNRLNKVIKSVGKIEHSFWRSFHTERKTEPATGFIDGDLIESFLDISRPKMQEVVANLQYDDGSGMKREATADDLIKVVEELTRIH

IKZF1 = target: T2, IKZF1 (Homo sapiens, UniProt Q13422+Q96SW2); assay: as above; type: cell-based; settings: Western blot, 24 hours of compound treatment, compounds tested at 50 nM and 500 nM (concentration for the table not stated)
T2 construct: effects of the compounds of the present disclosure on the expression of target proteins in cells; endogenous in cells; host or cells: human PBMCs (Milecell Biotechnologies)
T2 sequence (Q13422 whole entry): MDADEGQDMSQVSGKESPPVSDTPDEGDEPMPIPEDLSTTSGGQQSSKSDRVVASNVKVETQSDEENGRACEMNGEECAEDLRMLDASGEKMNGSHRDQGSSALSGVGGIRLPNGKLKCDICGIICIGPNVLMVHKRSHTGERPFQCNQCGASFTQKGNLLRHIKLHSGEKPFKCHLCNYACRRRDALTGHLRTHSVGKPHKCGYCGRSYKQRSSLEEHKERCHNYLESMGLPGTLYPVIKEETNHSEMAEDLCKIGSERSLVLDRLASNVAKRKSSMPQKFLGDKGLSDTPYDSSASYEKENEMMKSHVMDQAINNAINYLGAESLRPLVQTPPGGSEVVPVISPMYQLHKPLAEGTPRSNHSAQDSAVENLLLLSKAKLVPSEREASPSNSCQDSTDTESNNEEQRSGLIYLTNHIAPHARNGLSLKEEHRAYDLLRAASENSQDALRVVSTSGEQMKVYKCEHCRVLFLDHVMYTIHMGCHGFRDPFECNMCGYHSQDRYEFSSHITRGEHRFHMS
T2 sequence (Q96SW2 whole entry): as the sequence (Q96SW2 whole entry) above
T2 sequence (Q16531 whole entry partner): as the sequence (Q16531 whole entry partner) above

IKZF2 = target: T3, IKZF2 (Homo sapiens, UniProt Q96SW2+Q9UKS7); assay: as above; type: cell-based; settings: Western blot, 24 hours of compound treatment, compounds tested at 50 nM and 500 nM (concentration for the table not stated)
T3 construct: effects of the compounds of the present disclosure on the expression of target proteins in cells; endogenous in cells; host or cells: human PBMCs (Milecell Biotechnologies)
T3 sequence (Q9UKS7 whole entry): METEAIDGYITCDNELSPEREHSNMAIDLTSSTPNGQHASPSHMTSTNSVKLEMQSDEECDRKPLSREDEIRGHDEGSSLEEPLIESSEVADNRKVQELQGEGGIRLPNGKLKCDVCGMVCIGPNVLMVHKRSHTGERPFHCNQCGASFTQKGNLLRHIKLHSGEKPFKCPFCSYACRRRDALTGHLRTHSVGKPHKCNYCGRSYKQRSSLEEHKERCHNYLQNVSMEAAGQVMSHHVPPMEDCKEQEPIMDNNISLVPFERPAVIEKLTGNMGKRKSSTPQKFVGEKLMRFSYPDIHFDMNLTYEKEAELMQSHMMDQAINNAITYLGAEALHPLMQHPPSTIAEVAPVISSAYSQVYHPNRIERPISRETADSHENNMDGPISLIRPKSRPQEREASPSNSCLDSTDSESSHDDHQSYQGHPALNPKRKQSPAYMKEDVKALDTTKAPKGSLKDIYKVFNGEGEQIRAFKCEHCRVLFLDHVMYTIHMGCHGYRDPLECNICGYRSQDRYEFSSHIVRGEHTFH
T3 sequence (Q96SW2 whole entry): as the sequence (Q96SW2 whole entry) above
T3 sequence (Q16531 whole entry partner): as the sequence (Q16531 whole entry partner) above

IKZF3 = target: T4, IKZF3 (Homo sapiens, UniProt Q96SW2+Q9UKT9); assay: as above; type: cell-based; settings: Western blot, 24 hours of compound treatment, compounds tested at 50 nM and 500 nM (concentration for the table not stated)
T4 construct: effects of the compounds of the present disclosure on the expression of target proteins in cells; endogenous in cells; host or cells: human PBMCs (Milecell Biotechnologies)
T4 sequence (Q9UKT9 whole entry): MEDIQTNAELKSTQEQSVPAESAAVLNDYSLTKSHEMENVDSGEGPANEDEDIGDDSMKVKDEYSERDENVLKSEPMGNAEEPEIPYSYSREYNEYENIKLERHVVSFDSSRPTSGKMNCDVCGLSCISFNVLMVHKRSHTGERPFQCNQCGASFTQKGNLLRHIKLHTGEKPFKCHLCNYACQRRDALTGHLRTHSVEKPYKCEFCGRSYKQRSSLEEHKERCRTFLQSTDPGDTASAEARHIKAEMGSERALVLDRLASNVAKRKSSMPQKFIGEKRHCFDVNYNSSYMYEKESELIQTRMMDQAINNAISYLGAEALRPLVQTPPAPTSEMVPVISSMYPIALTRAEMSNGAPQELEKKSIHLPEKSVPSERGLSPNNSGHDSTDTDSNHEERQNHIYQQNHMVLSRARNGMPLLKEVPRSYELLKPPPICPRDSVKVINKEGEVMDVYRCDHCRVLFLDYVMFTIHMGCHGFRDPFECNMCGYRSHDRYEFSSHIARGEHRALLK
T4 sequence (Q96SW2 whole entry): as the sequence (Q96SW2 whole entry) above
T4 sequence (Q16531 whole entry partner): as the sequence (Q16531 whole entry partner) above

WEE1 = target: T5, WEE1 (Homo sapiens, UniProt P30291+Q96SW2); assay: as above; type: cell-based; settings: Western blot, 24 hours of compound treatment, compounds tested at 50 nM and 500 nM (concentration for the table not stated)
T5 construct: effects of the compounds of the present disclosure on the expression of target proteins in cells; endogenous in cells; host or cells: human PBMCs (Milecell Biotechnologies)
T5 sequence (P30291 whole entry): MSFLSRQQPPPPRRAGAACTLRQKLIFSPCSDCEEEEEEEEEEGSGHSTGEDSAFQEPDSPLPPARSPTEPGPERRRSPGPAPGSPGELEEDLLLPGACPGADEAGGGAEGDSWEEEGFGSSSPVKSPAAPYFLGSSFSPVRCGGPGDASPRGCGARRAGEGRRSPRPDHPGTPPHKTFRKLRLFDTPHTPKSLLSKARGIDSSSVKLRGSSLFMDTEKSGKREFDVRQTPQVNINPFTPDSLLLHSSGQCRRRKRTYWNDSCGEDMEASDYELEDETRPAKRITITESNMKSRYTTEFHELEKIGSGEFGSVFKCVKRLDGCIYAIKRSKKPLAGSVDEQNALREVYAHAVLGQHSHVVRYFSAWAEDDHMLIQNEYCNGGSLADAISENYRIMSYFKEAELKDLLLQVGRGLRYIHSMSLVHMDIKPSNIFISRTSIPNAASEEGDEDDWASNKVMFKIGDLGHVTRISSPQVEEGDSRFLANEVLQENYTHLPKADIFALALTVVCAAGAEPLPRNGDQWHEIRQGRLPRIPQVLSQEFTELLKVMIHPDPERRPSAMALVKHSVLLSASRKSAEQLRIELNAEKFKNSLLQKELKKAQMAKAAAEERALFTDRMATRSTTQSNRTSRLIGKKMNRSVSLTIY
T5 sequence (Q96SW2 whole entry): as the sequence (Q96SW2 whole entry) above
T5 sequence (Q16531 whole entry partner): as the sequence (Q16531 whole entry partner) above

GSPT1 = assay: as above; type: cell-based, Human; settings: Western blot, 24 hours of compound treatment, compounds tested at 50 nM and 500 nM (concentration for the table not stated)
[1] = target: T6, human Cereblon WT GST-tagged protein (Homo sapiens, UniProt Q96SW2); assay: CRBN-binding affinity, HTRF (CEREBLON BINDING kit); settings: for inhibition at 0.5 µM: read-out: Inhibition Rate at 0.5 µM (%); for inhibition at 2 µM: read-out: Inhibition Rate at 2 µM (%)
T6 construct: purchased CISBIO 64BDCRBNPEH
T6 sequence (Q96SW2 whole entry): as the sequence (Q96SW2 whole entry) above

Structure (SMILES): O=C1CCC(N2Cc3cc(CN4CCN(c5cc(F)ccc5F)CC4)ccc3C2=S)C(=O)N1 (stereo not shown) [GT-08625, 3-(5-((4-(2,5-difluorophenyl)piperazin-1-yl)methyl)-1-thioxoisoindolin-2-yl)piperidine-2,6-dione]
CK1α substrate protein remaining % (CK1α): A (0% ≤ substrate protein remaining % ≤ 80%)
IKZF 1 substrate protein remaining % (IKZF1): B (80%< substrate protein remaining %≤ 100%)
IKZF2 substrate protein remaining % (IKZF2): B (80%< substrate protein remaining %≤ 100%)
IKZF3 substrate protein remaining % (IKZF3): B (80%< substrate protein remaining %≤ 100%)
Wee1 substrate protein remaining % (WEE1): B (80%< substrate protein remaining %≤ 100%)
GSPT1 substrate protein remaining % (GSPT1): A (0% ≤ substrate protein remaining % ≤ 80%)
inhibition at 0.5 µM [1]: 60 to 80%
inhibition at 2 µM [1]: 80 to 100%

Structure (SMILES): O=C1CCC(N2Cc3cc(CN4CCN(c5ccc(F)c(F)c5)CC4)ccc3C2=S)C(=O)N1 (stereo not shown) [GT-08627, 3-(5-((4-(3,4-difluorophenyl)piperazin-1-yl)methyl)-1-thioxoisoindolin-2-yl)piperidine-2,6-dione]
CK1α substrate protein remaining % (CK1α): B (80%< substrate protein remaining %≤ 100%)
IKZF 1 substrate protein remaining % (IKZF1): B (80%< substrate protein remaining %≤ 100%)
IKZF2 substrate protein remaining % (IKZF2): B (80%< substrate protein remaining %≤ 100%)
IKZF3 substrate protein remaining % (IKZF3): B (80%< substrate protein remaining %≤ 100%)
Wee1 substrate protein remaining % (WEE1): B (80%< substrate protein remaining %≤ 100%)
GSPT1 substrate protein remaining % (GSPT1): A (0% ≤ substrate protein remaining % ≤ 80%)
inhibition at 0.5 µM [1]: 60 to 80%
inhibition at 2 µM [1]: 80 to 100%

Structure (SMILES): O=C1CCC(N2Cc3cc(CN4CCN(c5cc(F)cc(F)c5)CC4)ccc3C2=S)C(=O)N1 (stereo not shown) [GT-08628, 3-(5-((4-(3,5-difluorophenyl)piperazin-1-yl)methyl)-1-thioxoisoindolin-2-yl)piperidine-2,6-dione]
CK1α substrate protein remaining % (CK1α): B (80%< substrate protein remaining %≤ 100%)
IKZF 1 substrate protein remaining % (IKZF1): B (80%< substrate protein remaining %≤ 100%)
IKZF2 substrate protein remaining % (IKZF2): B (80%< substrate protein remaining %≤ 100%)
IKZF3 substrate protein remaining % (IKZF3): B (80%< substrate protein remaining %≤ 100%)
Wee1 substrate protein remaining % (WEE1): B (80%< substrate protein remaining %≤ 100%)
GSPT1 substrate protein remaining % (GSPT1): A (0% ≤ substrate protein remaining % ≤ 80%)
inhibition at 0.5 µM [1]: 53 to 60%
inhibition at 2 µM [1]: 80 to 100%

Structure (SMILES): O=C1CCC(N2Cc3c(CN4CCN(c5cc(Cl)cc(Cl)c5)CC4)cccc3C2=S)C(=O)N1 (stereo not shown) [GT-08629, 3-(4-((4-(3,5-dichlorophenyl)piperazin-1-yl)methyl)-1-thioxoisoindolin-2-yl)piperidine-2,6-dione]
CK1α substrate protein remaining % (CK1α): A (0% ≤ substrate protein remaining % ≤ 80%)
IKZF 1 substrate protein remaining % (IKZF1): B (80%< substrate protein remaining %≤ 100%)
IKZF2 substrate protein remaining % (IKZF2): B (80%< substrate protein remaining %≤ 100%)
IKZF3 substrate protein remaining % (IKZF3): B (80%< substrate protein remaining %≤ 100%)
Wee1 substrate protein remaining % (WEE1): A (0% ≤ substrate protein remaining % ≤ 80%)
GSPT1 substrate protein remaining % (GSPT1): B (80%< substrate protein remaining %≤ 100%)
inhibition at 0.5 µM [1]: 40 to 53%
inhibition at 2 µM [1]: 60 to 80%

Structure (SMILES): O=C1CCC(N2Cc3c(CN4CC=C(c5cccc6cnccc56)CC4)cccc3C2=S)C(=O)N1 (stereo not shown) [GT-08634, 3-(4-((4-(isoquinolin-5-yl)-3,6-dihydropyridin-1(2H)-yl)methyl)-1-thioxoisoindolin-2-yl)piperidine-2,6-dione]
CK1α substrate protein remaining % (CK1α): B (80%< substrate protein remaining %≤ 100%)
IKZF 1 substrate protein remaining % (IKZF1): B (80%< substrate protein remaining %≤ 100%)
IKZF2 substrate protein remaining % (IKZF2): B (80%< substrate protein remaining %≤ 100%)
IKZF3 substrate protein remaining % (IKZF3): B (80%< substrate protein remaining %≤ 100%)
Wee1 substrate protein remaining % (WEE1): A (0% ≤ substrate protein remaining % ≤ 80%)
GSPT1 substrate protein remaining % (GSPT1): B (80%< substrate protein remaining %≤ 100%)
inhibition at 0.5 µM [1]: 60 to 80%
inhibition at 2 µM [1]: 80 to 100%

Structure (SMILES): O=C1CCC(N2Cc3c(CN4CC(N5CCc6cc(F)ccc65)C4)cccc3C2=S)C(=O)N1 (stereo not shown) [GT-08635, 3-(4-((3-(5-fluoroindolin-1-yl)azetidin-1-yl)methyl)-1-thioxoisoindolin-2-yl)piperidine-2,6-dione]
CK1α substrate protein remaining % (CK1α): B (80%< substrate protein remaining %≤ 100%)
IKZF 1 substrate protein remaining % (IKZF1): B (80%< substrate protein remaining %≤ 100%)
IKZF2 substrate protein remaining % (IKZF2): B (80%< substrate protein remaining %≤ 100%)
IKZF3 substrate protein remaining % (IKZF3): B (80%< substrate protein remaining %≤ 100%)
Wee1 substrate protein remaining % (WEE1): A (0% ≤ substrate protein remaining % ≤ 80%)
GSPT1 substrate protein remaining % (GSPT1): B (80%< substrate protein remaining %≤ 100%)
inhibition at 0.5 µM [1]: 80 to 100%
inhibition at 2 µM [1]: 80 to 100%

The next lines start with results.

inhibition at 0.5 µM [1]: 60 to 80%
inhibition at 2 µM [1]: 80 to 100%
Structure (SMILES): O=C1CCC(N2Cc3cc(CN4CCN(c5c(F)cccc5F)CC4)ccc3C2=S)C(=O)N1 (stereo not shown) [GT-08626, 3-(5-((4-(2,6-difluorophenyl)piperazin-1-yl)methyl)-1-thioxoisoindolin-2-yl)piperidine-2,6-dione]
CK1α substrate protein remaining % (CK1α): B (80%< substrate protein remaining %≤ 100%)
IKZF 1 substrate protein remaining % (IKZF1): B (80%< substrate protein remaining %≤ 100%)
IKZF2 substrate protein remaining % (IKZF2): B (80%< substrate protein remaining %≤ 100%)
IKZF3 substrate protein remaining % (IKZF3): B (80%< substrate protein remaining %≤ 100%)
Wee1 substrate protein remaining % (WEE1): B (80%< substrate protein remaining %≤ 100%)
GSPT1 substrate protein remaining % (GSPT1): A (0% ≤ substrate protein remaining % ≤ 80%)

inhibition at 0.5 µM [1]: 53 to 60%
inhibition at 2 µM [1]: 60 to 80%
Structure (SMILES): O=C1CCC(N2Cc3c(CN4CCN(c5c(F)cccc5F)CC4)cccc3C2=S)C(=O)N1 (stereo not shown) [GT-08630, 3-(4-((4-(2,6-difluorophenyl)piperazin-1-yl)methyl)-1-thioxoisoindolin-2-yl)piperidine-2,6-dione]
CK1α substrate protein remaining % (CK1α): B (80%< substrate protein remaining %≤ 100%)
IKZF 1 substrate protein remaining % (IKZF1): B (80%< substrate protein remaining %≤ 100%)
IKZF2 substrate protein remaining % (IKZF2): B (80%< substrate protein remaining %≤ 100%)
IKZF3 substrate protein remaining % (IKZF3): B (80%< substrate protein remaining %≤ 100%)
Wee1 substrate protein remaining % (WEE1): A (0% ≤ substrate protein remaining % ≤ 80%)
GSPT1 substrate protein remaining % (GSPT1): A (0% ≤ substrate protein remaining % ≤ 80%)

inhibition at 0.5 µM [1]: 60 to 80%
inhibition at 2 µM [1]: 80 to 100%
Structure (SMILES): O=C1CCC(N2Cc3c(CN4CCN(c5ccc(F)c(F)c5)CC4)cccc3C2=S)C(=O)N1 (stereo not shown) [GT-08631, 3-(4-((4-(3,4-difluorophenyl)piperazin-1-yl)methyl)-1-thioxoisoindolin-2-yl)piperidine-2,6-dione]
CK1α substrate protein remaining % (CK1α): B (80%< substrate protein remaining %≤ 100%)
IKZF 1 substrate protein remaining % (IKZF1): B (80%< substrate protein remaining %≤ 100%)
IKZF2 substrate protein remaining % (IKZF2): B (80%< substrate protein remaining %≤ 100%)
IKZF3 substrate protein remaining % (IKZF3): B (80%< substrate protein remaining %≤ 100%)
Wee1 substrate protein remaining % (WEE1): A (0% ≤ substrate protein remaining % ≤ 80%)
GSPT1 substrate protein remaining % (GSPT1): B (80%< substrate protein remaining %≤ 100%)

inhibition at 0.5 µM [1]: 60 to 80%
inhibition at 2 µM [1]: 80 to 100%
Structure (SMILES): O=C1CCC(N2Cc3c(CN4CCN(c5cc(F)cc(F)c5)CC4)cccc3C2=S)C(=O)N1 (stereo not shown) [GT-08632, 3-(4-((4-(3,5-difluorophenyl)piperazin-1-yl)methyl)-1-thioxoisoindolin-2-yl)piperidine-2,6-dione]
CK1α substrate protein remaining % (CK1α): B (80%< substrate protein remaining %≤ 100%)
IKZF 1 substrate protein remaining % (IKZF1): B (80%< substrate protein remaining %≤ 100%)
IKZF2 substrate protein remaining % (IKZF2): B (80%< substrate protein remaining %≤ 100%)
IKZF3 substrate protein remaining % (IKZF3): B (80%< substrate protein remaining %≤ 100%)
Wee1 substrate protein remaining % (WEE1): A (0% ≤ substrate protein remaining % ≤ 80%)
GSPT1 substrate protein remaining % (GSPT1): B (80%< substrate protein remaining %≤ 100%)

inhibition at 0.5 µM [1]: 60 to 80%
inhibition at 2 µM [1]: 80 to 100%
Structure (SMILES): O=C1CCC(N2Cc3c(CN4CCN(c5ccccn5)CC4)cccc3C2=S)C(=O)N1 (stereo not shown) [GT-08691, 3-(4-((4-(pyridin-2-yl)piperazin-1-yl)methyl)-1-thioxoisoindolin-2-yl)piperidine-2,6-dione]
CK1α substrate protein remaining % (CK1α): B (80%< substrate protein remaining %≤ 100%)
IKZF 1 substrate protein remaining % (IKZF1): B (80%< substrate protein remaining %≤ 100%)
IKZF2 substrate protein remaining % (IKZF2): B (80%< substrate protein remaining %≤ 100%)
IKZF3 substrate protein remaining % (IKZF3): B (80%< substrate protein remaining %≤ 100%)
Wee1 substrate protein remaining % (WEE1): A (0% ≤ substrate protein remaining % ≤ 80%)
GSPT1 substrate protein remaining % (GSPT1): B (80%< substrate protein remaining %≤ 100%)
